This note sets out measurements from PubChem BioAssay (NCI).

Structures are written as SMILES.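 Tested at 5 concentrations; 48 h exposure; 96-well plates; endpoints linearly interpolated, else capped at highest concentration. GI50 marks 50% less growth. TGI is the concentration that stops growth completely.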

Common to all, as to test: NCI-60 cell line screen, 48 h
In assay [1] the test system is A498 renal.
Assay [2] deals with SN12C renal.
The test system of assay [3] is NCI-H226 lung.
The test system of assay [4] is EKVX NSCLC.
Assay [5] relates to BT-549 breast.
In assay [6] the test system is U251 CNS.
The test system of assay [7] is SK-MEL-28 melanoma.
For assay [8], the system named is OVCAR-3 ovarian.
The test system of assay [9] is NCI-H522 lung.
The subject of assay [10] is MDA-MB-435.

For the molecule `O=C(O)/C(Cl)=C(/Cl)C(=O)Nc1cccc(Cl)c1`, the TGI was more than 100 µM in assay [1]; 36.9 µM in assay [2]; 67.2 µM in assay [3]; 33.6 µM in assay [4]; 34.1 µM in assay [5]; 59.9 µM in assay [6]. The TGI came to 32.8 µM in [7], 31.4 µM in assay [8], 10.1 µM in assay [9] and 46.5 µM in [10].
As to `CCOC1NC(=O)Oc2ccccc21` (stereo unspecified), the TGI in assay [1], in assay [2], in [3], in assay [4], in [5] and in assay [6] was more than 100 µM each time. Moreover, the TGI in [7], in assay [8], in assay [9] and in assay [10] was more than 100 µM throughout.
For the molecule `Oc1ccc2ccccc2c1/C=N\Nc1ccccn1`, the GI50 in [1] was 1.25 µM; in assay [2], 1.7 µM; in assay [3], 2.2 µM; in assay [4], 0.656 µM; in assay [5], 3.84 µM; in [6], 0.427 µM. Moreover, the GI50 in [7] was 8.81 µM; in assay [8], 0.349 µM; in [9], 0.413 µM; in assay [10], 0.752 µM. Further, the TGI in [1] is 7.03 µM; in [2] it was more than 100 µM; in assay [3], more than 41.9 µM; in [4], more than 21.6 µM; in assay [5] it was more than 54.9 µM; in assay [6], 97.3 µM. The TGI was more than 100 µM in assay [7], more than 56.8 µM in assay [8] and more than 100 µM in assay [10].
`Cc1ccc(/C=C(\C#N)n2nnc3cc(F)c(F)cc32)cc1`: the GI50 is 2.51 µM in assay [1]; 2.72 µM in [2]; 6.45 µM in assay [3]; 3.86 µM in assay [4]; 1.95 µM in assay [5]; 1.48 µM in [6]. For the same molecule, the GI50 in assay [7] was 6.79 µM; in assay [8], 1.47 µM; in assay [9] it was 0.291 µM; in assay [10] it was 0.36 µM. Further, the TGI in [1] stood at 7.84 µM; in [2], 7.41 µM; in [3] it was 63.2 µM; in assay [4] it was 41.2 µM; in [5], 6.81 µM; in assay [6], 2.94 µM. Moreover, the TGI in assay [7] is more than 100 µM; in assay [8], 6.08 µM; in [9], 1.12 µM; in assay [10], 17.2 µM.
`COC(=O)c1c(-c2ccccc2)csc1NC(=O)c1c(-c2ccccc2)noc1C`: the GI50 in [1] was more than 100 µM; in assay [2], 4.06 µM; in assay [3], 1.56 µM; in assay [6], 0.321 µM; in assay [7] it was 1.56 µM; in assay [8] it was 3.79 µM. Besides, the values for the GI50 in assay [9] and in assay [10] were 1.56 µM and 1.2 µM, respectively. Further, the TGI in assay [1], in assay [2], in assay [3], in [4], in assay [5] and in assay [6] was more than 100 µM in each case. Besides, the TGI in [7] was more than 100 µM; in assay [8] it was more than 100 µM; in assay [9] it was more than 26.3 µM; in assay [10] it was more than 100 µM.
As for `Cn1c2ccccc2c2c3c(c4c5ccccc5n(CCCCCC#N)c4c21)C(=O)N(O)C3=O`, the GI50 in assay [1] is 1.21 µM; in assay [2] it was 0.453 µM; in assay [3], 1.6 µM; in assay [4], 2.67 µM; in assay [5], 2.5 µM; in assay [6] it was 0.33 µM. In addition, the GI50 in [7] was 1.72 µM; in [8], 1.29 µM; in [9], 0.268 µM; in assay [10], 0.788 µM. The TGI is 3.56 µM in [1]; 20.9 µM in assay [2]; 7.14 µM in [3]; more than 100 µM in assay [4]; 88.7 µM in assay [5]; 1.51 µM in assay [6]. The TGI in [7] turned out to be 9.91 µM; in assay [8] it was 7.9 µM; in [9], 1.42 µM; in assay [10], 9.59 µM.
Turning to `COC(=O)c1ccc2c(c1)nc(-c1ccc(Cl)cc1)n2-c1cc(C(C)(C)C)[nH]n1`, the GI50 in assay [1] was 2.26 µM; in assay [2], 4.34 µM; in assay [3], 4.09 µM; in assay [4], 3.06 µM; in [5], 3.35 µM; in assay [6], 4.13 µM. The GI50 in assay [7] was 3.38 µM; in assay [8] it was 2.35 µM; in assay [9], 3.21 µM; in assay [10] it was 1.19 µM. The TGI in assay [1] is 9.76 µM; in assay [2] it was 27.7 µM; in assay [3], 44 µM; in [4], more than 100 µM; in assay [5], 11.5 µM; in assay [6], 22.7 µM. Further, the TGI was 15.5 µM in assay [7], 6.13 µM in assay [8], 20.3 µM in [9] and 5 µM in [10].
Take `COC(=O)c1oc2c(C(=O)/C=C/c3ccc(OC)cc3)c(OCCCN3CCCCC3)ccc2c1C`: the GI50 in assay [1] was 1.44 µM; in [2], 1.75 µM; in assay [3] it was 2.32 µM; in [4], 2.01 µM; in assay [5], 2.89 µM; in assay [6], 1.49 µM. Also, the GI50 is 0.85 µM in assay [7], 1.63 µM in assay [8], 1.6 µM in [9] and 1.67 µM in assay [10]. Also, the TGI turned out to be 4.54 µM in assay [1]; 4.86 µM in assay [2]; 6.38 µM in [3]; 7.18 µM in assay [4]; 9.11 µM in [5]; 2.88 µM in assay [6]. Also, the TGI in assay [7] is 2.33 µM; in [8], 3.72 µM; in [9], 3.6 µM; in assay [10], 3.68 µM.
Take `COc1ccc(Cc2ccccc2C(=O)O)c2ccccc12`: the TGI in [1] was 57.9 µM; in [2] it was more than 100 µM; in [3] it was more than 100 µM; in assay [4], 98.9 µM; in assay [5], more than 100 µM; in assay [6] it was 89.3 µM. In addition, the TGI in assay [7] was 64.2 µM; in assay [8], 47.1 µM; in assay [9], 55.4 µM; in [10], 54.8 µM.
Consider `COc1ccc2c(CNCCCCO)cc3cc4c(cc3c2c1)OCO4`, for which the GI50 in assay [1] was 1.16 µM; in [2], 1.92 µM; in [3] it was 0.638 µM; in assay [4], 2.78 µM; in [5], 3.83 µM; in assay [6], 1.85 µM. Besides, the GI50 in assay [7] is 4.93 µM; in assay [8], 0.984 µM; in assay [9], 0.228 µM; in [10], 0.982 µM. Besides, the TGI in assay [1] came to 2.98 µM; in [2] it was 7.72 µM; in [3], 1.62 µM; in assay [4] it was 11.4 µM; in assay [5], 11.9 µM; in [6], 7.29 µM. In addition, the TGI in [7] came out at 11 µM; in [8], 4.95 µM; in [9], 2.93 µM; in assay [10], 3.54 µM.
Consider `CC1=C(C(=O)Nc2ccc(F)c(Cl)c2)C(c2cccc(Cl)c2)NC(=O)N1` (stereo unspecified), for which the GI50 is 1.39 µM in [1]; 16 µM in [2]; 18.1 µM in [3]; 24.2 µM in assay [4]; 19 µM in assay [5]; 16.5 µM in assay [6]. Further, the GI50 in assay [7] is 13.8 µM; in assay [8], 19.5 µM; in [9] it was 15.9 µM; in assay [10], 17.9 µM. Further, the TGI stood at 15.5 µM in [1]; 32.1 µM in assay [2]; 48.2 µM in assay [3]; 72.6 µM in assay [4]; 42 µM in [5]; 32.5 µM in [6]. Further, the TGI in assay [7] stood at 28 µM; in assay [8] it was 56.2 µM; in [9], 33 µM; in assay [10], 38 µM.
As for `Nc1nc(Cl)nc2c1ncn2C1O[C@H](CO)[C@@H](O)[C@@H]1F` (stereo partly specified), the GI50 is 0.682 µM in [1]; 0.0668 µM in assay [2]; 0.329 µM in [3]; 1.51 µM in assay [4]; 0.091 µM in [5]; 0.442 µM in assay [6]. Besides, the GI50 was more than 100 µM in assay [7], more than 100 µM in assay [8] and 0.485 µM in assay [10]. Moreover, the TGI in assay [1] is 14.3 µM; in [2] it was more than 100 µM; in assay [3], 37.5 µM; in assay [4], more than 100 µM; in [5], 0.702 µM; in assay [6], more than 100 µM. Moreover, the TGI in assay [7], in assay [8], in assay [9] and in assay [10] was more than 100 µM each time.
Turning to `O=Nc1c(-c2cccc([N+](=O)[O-])c2)nc2ncccn12`, the GI50 in [1] was 17.4 µM; in assay [2] it was 16.4 µM; in assay [3], 16.2 µM; in assay [4], 18.3 µM; in assay [5], 15.8 µM; in [6], 13.9 µM. Further, the GI50 in [7] was 15.2 µM; in [8], 3.22 µM; in [9], 10.6 µM; in [10], 13.7 µM. In addition, the TGI was found to be 38.3 µM in assay [1]; 42.3 µM in assay [2]; 37 µM in assay [3]; 43.3 µM in assay [4]; 32.1 µM in [5]; 32.5 µM in [6]. In addition, the TGI turned out to be 30.2 µM in assay [7], 12.5 µM in assay [8], 25.1 µM in assay [9] and 36.4 µM in assay [10].
In the case of `NCCOc1ccccn1`, the TGI in [1], in assay [2], in [3], in assay [4], in assay [5] and in [6] was more than 100 µM throughout. Also, the TGI in assay [7], in assay [8], in [9] and in assay [10] was more than 100 µM throughout.
